Results on 24 compounds are retold here after ChEMBL document CHEMBL3217552, “Novel benzothiazole derivatives with a broad antifungal spectrum: design, synthesis and structureactivity relationships” (2013).

Molecules are shown by their SMILES. ≈ marks a conversion by molar mass, not a printed value. Calls of active or inactive are those of the source. The rule behind the calls is not given here. A value given as a limit tells only on which side of the number the result lay.

Broadly, the MIC80 is an inhibitory concentration at the 80% level, which refers to growth in some studies and to a panel of isolates in others.

The test system of one assay is Nannizzia gypsea. The assay is described as follows: Antifungal activity against Microsporum gypseum after 72 hrs by serial dilution method. In kind it is functional.
In the next assay the test system is Candida parapsilosis. Nature of the assay: Antifungal activity against Candida parapsilosis after 24 hrs by serial dilution method. In kind it is functional. Particulars: Lodderomyces parapsilosis.
Assay [1] deals with Candida albicans. The assay is described as follows: Antifungal activity against Candida albicans after 24 hrs by serial dilution method. In kind it is functional.
A further assay deals with Nakaseomyces glabratus. The assay is described as follows: Antifungal activity against Candida glabrata after 24 hrs by serial dilution method. In kind it is functional.
A further assay relates to Cryptococcus neoformans. Nature of the assay: Antifungal activity against Cryptococcus neoformans after 72 hrs by serial dilution method. The class given is functional.
The next assay concerns Trichophyton rubrum. Nature of the assay: Antifungal activity against Trichophyton rubrum after 72 hrs by serial dilution method. The class given is functional.
The subject of assay [2] is Candida albicans. Nature of the assay: Antifungal activity against Candida albicans SC5314 infected in Caenorhabditis elegans assessed as nematode survival at 32 ug/ml after 144 hrs by serial dilution method. In kind it is functional, organism-based.
For assay [3], the system named is Candida albicans. Nature of the assay: Antifungal activity against Candida albicans SC5314 infected in Caenorhabditis elegans assessed as nematode survival at 16 ug/ml after 144 hrs by serial dilution method. The class given is functional. To be noted: SC5314, 144 h.

For the compound `O=C(Nc1nc2ccc(NC(=O)[C@@H]3CCC[C@H](NCc4ccc5ccccc5c4Br)C3)cc2s1)C1CCCC1` (relative stereo), the MIC80 was 64 µg/mL (≈ 106 µM) in the assay with Nannizzia gypsea; more than 64 µg/mL against Candida parapsilosis; more than 64 µg/mL against Candida albicans [1]; more than 64 µg/mL in the assay with Nakaseomyces glabratus; more than 64 µg/mL with Cryptococcus neoformans; 64 µg/mL (≈ 106 µM) with Trichophyton rubrum.

For the compound `O=C(Nc1nc2ccc(NC(=O)[C@@H]3CCC[C@H](NCC4CCc5ncccc5C4)C3)cc2s1)C1CCCC1` (relative stereo), the MIC80 was more than 64 µg/mL against Nannizzia gypsea; 64 µg/mL (≈ 120 µM) in the assay with Candida parapsilosis; 16 µg/mL (≈ 30.1 µM) against Candida albicans [1]; more than 64 µg/mL against Nakaseomyces glabratus; more than 64 µg/mL in the assay on Cryptococcus neoformans; more than 64 µg/mL against Trichophyton rubrum.

`O=C(Nc1nc2ccc(NC(=O)[C@@H]3CCC[C@H](NCC4CNc5ccccc5C4)C3)cc2s1)C1CCCC1` (relative stereo): the MIC80 against Nannizzia gypsea was 64 µg/mL (≈ 120 µM); in the assay with Candida parapsilosis, more than 64 µg/mL; in the assay with Candida albicans [1] it was 32 µg/mL (≈ 60.2 µM); in the assay with Nakaseomyces glabratus, more than 64 µg/mL; with Cryptococcus neoformans, more than 64 µg/mL; in the assay on Trichophyton rubrum, more than 64 µg/mL.

As for `O=C(Nc1nc2ccc(NC(=O)[C@@H]3CCC[C@H](NCc4cc5ccccc5nc4Cl)C3)cc2s1)C1CCCC1` (relative stereo), the MIC80 with Nannizzia gypsea, in the assay on Candida parapsilosis, in the assay on Candida albicans [1], in the assay on Nakaseomyces glabratus, with Cryptococcus neoformans and against Trichophyton rubrum was more than 64 µg/mL each time.

Consider `O=C(Nc1ccc2nc(NC(=O)[C@@H]3CCC[C@H](NCc4ccc5ccccc5n4)C3)sc2c1)C1CCCC1` (relative stereo), for which the MIC80 was 64 µg/mL (≈ 121 µM) with Nannizzia gypsea; more than 64 µg/mL against Candida parapsilosis; more than 64 µg/mL against Candida albicans [1]; more than 64 µg/mL in the assay on Nakaseomyces glabratus; more than 64 µg/mL in the assay on Cryptococcus neoformans; more than 64 µg/mL against Trichophyton rubrum.

Consider `CCOc1ccc2ccccc2c1CN[C@H]1CCC[C@@H](C(=O)Nc2ccc3nc(NC(=O)C4CCCC4)sc3c2)C1` (relative stereo), for which the MIC80 against Nannizzia gypsea is 64 µg/mL (≈ 112 µM); against Candida parapsilosis, more than 64 µg/mL; in the assay on Candida albicans [1], more than 64 µg/mL; against Nakaseomyces glabratus, more than 64 µg/mL; in the assay on Cryptococcus neoformans, more than 64 µg/mL; with Trichophyton rubrum, 64 µg/mL (≈ 112 µM).

Consider `O=C(Nc1ccc2nc(NC(=O)[C@@H]3CCC[C@H](NCc4cnc5ccccc5c4)C3)sc2c1)C1CCCC1` (relative stereo), for which the MIC80 in the assay with Nannizzia gypsea was 64 µg/mL (≈ 121 µM); in the assay on Candida parapsilosis, more than 64 µg/mL; with Candida albicans [1], more than 64 µg/mL; in the assay on Nakaseomyces glabratus, more than 64 µg/mL; with Cryptococcus neoformans it was more than 64 µg/mL; in the assay with Trichophyton rubrum, more than 64 µg/mL.

With `OC(Cn1cncn1)(Cn1cncn1)c1ccc(F)cc1F` [FLUCONAZOLE], the MIC80 against Nannizzia gypsea stood at 32 µg/mL (≈ 104 µM); with Candida parapsilosis it was 2 µg/mL (≈ 6.53 µM); with Candida albicans [1], 0.5 µg/mL (≈ 1.63 µM); in the assay with Nakaseomyces glabratus, 2 µg/mL (≈ 6.53 µM); with Cryptococcus neoformans, 16 µg/mL (≈ 52.2 µM); with Trichophyton rubrum, 4 µg/mL (≈ 13.1 µM). Besides, the result in the assay on Candida albicans [2] was Active.

Turning to `O=C(Nc1ccc2nc(NC(=O)[C@@H]3CCC[C@H](NCc4ccnc5ccccc45)C3)sc2c1)C1CCCC1` (relative stereo), the MIC80 in the assay with Nannizzia gypsea is more than 64 µg/mL; against Candida parapsilosis, more than 64 µg/mL; in the assay with Candida albicans [1] it was more than 64 µg/mL; with Nakaseomyces glabratus, 16 µg/mL (≈ 30.3 µM); against Cryptococcus neoformans, 16 µg/mL (≈ 30.3 µM); in the assay with Trichophyton rubrum, more than 64 µg/mL.

Turning to `COc1ccc2ccccc2c1CN[C@H]1CCC[C@@H](C(=O)Nc2ccc3nc(NC(=O)C4CCCC4)sc3c2)C1` (relative stereo), the MIC80 against Nannizzia gypsea was 64 µg/mL (≈ 115 µM); against Candida parapsilosis, more than 64 µg/mL; in the assay with Candida albicans [1], more than 64 µg/mL; in the assay on Nakaseomyces glabratus, more than 64 µg/mL; against Cryptococcus neoformans it was more than 64 µg/mL; in the assay on Trichophyton rubrum, 64 µg/mL (≈ 115 µM).

For the compound `O=C(Nc1nc2ccc(NC(=O)[C@@H]3CCC[C@H](NCc4ccnc5ccccc45)C3)cc2s1)C1CCCC1` (relative stereo), the MIC80 in the assay on Nannizzia gypsea is 16 µg/mL (≈ 30.3 µM); against Candida parapsilosis, more than 64 µg/mL; against Candida albicans [1], more than 64 µg/mL; against Nakaseomyces glabratus it was more than 64 µg/mL; against Cryptococcus neoformans, more than 64 µg/mL; in the assay with Trichophyton rubrum, more than 64 µg/mL.

In the case of `O=C(Nc1nc2ccc(NC(=O)[C@@H]3CCC[C@H](NCc4ccc5ccccc5n4)C3)cc2s1)C1CCCC1` (relative stereo), the MIC80 with Nannizzia gypsea, in the assay on Candida parapsilosis, with Candida albicans [1], in the assay on Nakaseomyces glabratus, against Cryptococcus neoformans and in the assay on Trichophyton rubrum was more than 64 µg/mL in each case.

Regarding `O=C(Nc1nc2ccc(NC(=O)[C@@H]3CCC[C@H](NCc4ccc5ccccc5c4)C3)cc2s1)C1CCCC1` (racemic), the MIC80 was more than 64 µg/mL against Nannizzia gypsea; more than 64 µg/mL in the assay with Candida parapsilosis; 4 µg/mL (≈ 7.59 µM) against Candida albicans [1]; more than 64 µg/mL against Nakaseomyces glabratus; more than 64 µg/mL in the assay on Cryptococcus neoformans; more than 64 µg/mL against Trichophyton rubrum.

Regarding `O=C(Nc1ccc2nc(NC(=O)[C@@H]3CCC[C@H](NCc4ccc5ccccc5c4)C3)sc2c1)C1CCCC1` (relative stereo), the MIC80 was 32 µg/mL (≈ 60.8 µM) against Nannizzia gypsea; more than 64 µg/mL in the assay on Candida parapsilosis; 8 µg/mL (≈ 15.2 µM) in the assay on Candida albicans [1]; 16 µg/mL (≈ 30.4 µM) in the assay with Nakaseomyces glabratus; 32 µg/mL (≈ 60.8 µM) in the assay with Cryptococcus neoformans; 32 µg/mL (≈ 60.8 µM) against Trichophyton rubrum.

For the compound `O=C(Nc1nc(-c2ccc(NC(=O)[C@H]3CCC[C@@H](NCc4ccc5ccccc5c4)C3)cc2)cs1)C1CCCC1` (relative stereo), the MIC80 was 0.125 µg/mL (≈ 0.226 µM) against Nannizzia gypsea; more than 64 µg/mL in the assay on Candida parapsilosis; more than 64 µg/mL in the assay on Candida albicans [1]; more than 64 µg/mL in the assay with Nakaseomyces glabratus; more than 64 µg/mL against Cryptococcus neoformans; 32 µg/mL (≈ 57.9 µM) with Trichophyton rubrum.

With `O=C(Nc1nc2ccc(NC(=O)[C@@H]3CCC[C@H](NCc4ccc5ncccc5c4)C3)cc2s1)C1CCCC1` (relative stereo), the MIC80 was more than 64 µg/mL in the assay on Nannizzia gypsea; 4 µg/mL (≈ 7.58 µM) in the assay on Candida parapsilosis; 4 µg/mL (≈ 7.58 µM) with Candida albicans [1]; 0.125 µg/mL (≈ 0.237 µM) with Nakaseomyces glabratus; 4 µg/mL (≈ 7.58 µM) against Cryptococcus neoformans; 4 µg/mL (≈ 7.58 µM) against Trichophyton rubrum. Further, the survival at 16 µg/mL in the assay with Candida albicans [3] was 60%.

Regarding `O=C(Nc1nc2ccc(NC(=O)[C@@H]3CCC[C@H](NCc4cccc5cccnc45)C3)cc2s1)C1CCCC1` (relative stereo), the MIC80 with Nannizzia gypsea, in the assay on Candida parapsilosis, in the assay on Candida albicans [1], in the assay on Nakaseomyces glabratus, in the assay with Cryptococcus neoformans and in the assay on Trichophyton rubrum was more than 64 µg/mL each time.

Take `O=C(Nc1nc2ccc(NC(=O)[C@@H]3CCC[C@H](NCc4cnc5ccccc5c4)C3)cc2s1)C1CCCC1`: the MIC80 with Nannizzia gypsea was more than 64 µg/mL; against Candida parapsilosis it was 8 µg/mL (≈ 15.2 µM); with Candida albicans [1], 8 µg/mL (≈ 15.2 µM); in the assay on Nakaseomyces glabratus it was more than 64 µg/mL; against Cryptococcus neoformans, 4 µg/mL (≈ 7.58 µM); in the assay on Trichophyton rubrum, 8 µg/mL (≈ 15.2 µM).

With `O=C(Nc1nc2ccc(NC(=O)[C@@H]3CCC[C@H](NCc4ccc5ccccc5n4)C3)cc2o1)C1CCCC1` (relative stereo), the MIC80 is 1 µg/mL (≈ 1.95 µM) in the assay on Nannizzia gypsea; more than 64 µg/mL in the assay with Candida parapsilosis; more than 64 µg/mL against Candida albicans [1]; more than 64 µg/mL in the assay with Nakaseomyces glabratus; more than 64 µg/mL in the assay with Cryptococcus neoformans; more than 64 µg/mL with Trichophyton rubrum.

As to `COc1ccc(CN[C@H]2CCC[C@@H](C(=O)Nc3ccc4nc(NC(=O)C5CCCC5)sc4c3)C2)c2ccccc12` (relative stereo), the MIC80 with Nannizzia gypsea, with Candida parapsilosis, with Candida albicans [1], with Nakaseomyces glabratus, with Cryptococcus neoformans and against Trichophyton rubrum was more than 64 µg/mL in each case.

As to `O=C(Nc1ccc2nc(NC(=O)[C@@H]3CCC[C@H](NCc4ccc5ncccc5c4)C3)sc2c1)C1CCCC1` (relative stereo), the MIC80 in the assay on Nannizzia gypsea was 32 µg/mL (≈ 60.6 µM); in the assay with Candida parapsilosis, more than 64 µg/mL; in the assay on Candida albicans [1] it was more than 64 µg/mL; against Nakaseomyces glabratus it was more than 64 µg/mL; in the assay with Cryptococcus neoformans, more than 64 µg/mL; with Trichophyton rubrum, more than 64 µg/mL.

Take `O=C(Nc1nc2ccc(NC(=O)[C@@H]3CCC[C@H](NCc4cccc5ccccc45)C3)cc2s1)C1CCCC1` (relative stereo): the MIC80 in the assay on Nannizzia gypsea, in the assay with Candida parapsilosis, against Candida albicans [1], with Nakaseomyces glabratus, in the assay on Cryptococcus neoformans and in the assay on Trichophyton rubrum was more than 64 µg/mL in each case.

For `O=C(Nc1nc2ccc(NC(=O)[C@@H]3CCC[C@H](NCc4ccc5ccccc5c4)C3)cc2o1)C1CCCC1` (relative stereo), the MIC80 with Nannizzia gypsea was 1 µg/mL (≈ 1.96 µM); in the assay on Candida parapsilosis, more than 64 µg/mL; against Candida albicans [1], more than 64 µg/mL; in the assay on Nakaseomyces glabratus, more than 64 µg/mL; in the assay on Cryptococcus neoformans, more than 64 µg/mL; in the assay on Trichophyton rubrum it was more than 64 µg/mL.

On to `COc1ccc2cc(CN[C@H]3CCC[C@@H](C(=O)Nc4ccc5nc(NC(=O)C6CCCC6)sc5c4)C3)ccc2c1` (relative stereo), for which the MIC80 in the assay with Nannizzia gypsea, against Candida parapsilosis, in the assay on Candida albicans [1], against Nakaseomyces glabratus, with Cryptococcus neoformans and in the assay with Trichophyton rubrum was more than 64 µg/mL in each case.
